# Results from article PMC9013689, “Development of reconstructed intestinal micronucleus cytome (RICyt) assay in 3D human gut model for genotoxicity assessment of orally ingested substances” (Archives of Toxicology, 2022).
# Where “and” joins values, the source holds several entries; their conditions need not be identical. Identical values can stand only once. Counter-ions that a name gives are not always drawn. Like-named read-outs stand apart in the source and are kept apart here.
# Assays:
# 3D EpiIntestinal™ tissue [1] = assay: Cytokinesis-blocked micronucleus analysis (CBMN) in EpiIntestinal™ tissue; type: cell-based, human; settings: 6 μg/ml, apical and basolateral, 10 days
# Description: The CBMN assay was conducted according to a previously published procedure (Fenech and Morley [1985b]). Briefly, cytochalasin B (5474, Tocris Bioscience, Bristol, UK, 6 μg/ml) was applied to the 3D EpiIntestinal™ in vitro tissues every other day, to the apical and to the basolateral compartments. […] The cell suspension was stored in fixative at 4 °C overnight, stained with acridine orange (1:100 dilution in 1 × PBS, A1301, Invitrogen; Thermo Fisher Scientific, Waltham, MA) and scored under fluorescence microscopy (Zeiss Axioimager, equipped with triple band excitation fluorescence filter set: DAPI, FITC and Texas red). Scoring was performed following the criteria developed by Fenech et al. (Fenech et al. [2003], [2007]). One thousand total cells per microtissue were scored to determine the percentage of cells with one (mononucleated) or two nuclei (binucleated). The results were generated from three independent experiments. Each experiment consisted of a single microtissue per dose.
# 3D EpiIntestinal™ tissue [2] = settings: human, 10 days
# Description: (§1) Test compound stock solutions were prepared in DMSO (D161802, Sigma Aldrich, St Louis, MO). For the 3D tissues, dilutions were made in complete culture media yielding ≤ 0.1% DMSO final concentration. Media containing 0.1% DMSO (i.e. without test article) were applied to tissues to serve as the vehicle control. All 3D tissues were treated apically every alternate day (from day 0–6) and daily (from day 7–9), while basolateral wells contain untreated culture media to support the tissue growth. TK6 cells were exposed for 24 h with the test materials prior to harvest.
# (§2) 3D tissues were dissociated using human tumour dissociation kit (Miltenyl Biotec, Bergisch Gladbach, Germany), as per manufacturers’ instruction, with minor modifications. Individual 3D tissues cultured on microporous membranes were excised from the culture inserts and incubated for 15 min in cell recovery solution (Corning, Tewksbury, MA). The tissues were subsequently peeled off from the membrane with fine point forceps under stereo microscope (Leica Microsystems, Wetzlar, Germany). The peeled tissues were placed into gentleMACS C-tube (Miltenyi Biotech, Bergisch Gladbach, Germany) containing the enzyme mix described in the kit’s protocol. The tubes were then transferred into a gentleMACS octo dissociator with heater (Miltenyi Biotech, Bergisch Gladbach, Germany), and subjected to one cycle of ‘37C_m_LPDK_1’ program. Upon completion, the cell suspension was centrifuged at 1000 rpm for 5 min; the supernatant was removed and the pellet was resuspended in 2 mL of Hanks Balanced Salts Solution (HBSS). […] The proliferation of the 3D tissue was estimated through calculation of population doubling based on the dissociated cell number at the day 1, 6 and 11 after tissue revival.
# 3D EpiIntestinal™ tissue [3] = assay: Reconstructed intestine micronucleus cytome (RICyt) assay
# Source text: EpiIntestinal™ tissue (SMI-200-FT v2.0) was purchased from MatTek Corporation® (Ashland, MA). The EpiIntestinal™ construct is a differentiated 3D tissue model that consists of intestinal villi and crypts topology resembling the normal human small intestine. […] The mature tissues are shipped sealed in 24-well agar-plugged plates to the designated laboratory (in this instance, Singapore). Upon receipt, the tissues are revived overnight in fresh SMI-100-MM before use in assays.
# as §1
# as §2, with “revival. The cells were then (1) fixed for micronuclei scoring or (2) processed for subsequent experimentation.” for “revival.”
# Tissues were exposed to test substances, harvested and dissociated into single cell suspension as described above. Cell suspension samples were divided equally; half of the cell suspension sample was fixed in Carnoy’s solution with 3 fixation steps in methanol/acetic acid […], supplemented with formaldehyde at 1st fixation. The cell suspension was aged at least overnight at 4 °C to improve the quality of fixed cells. The remaining cells were incubated with 4% formaldehyde for 15 min, rinsed twice with 1 × PBS and stored in 4 °C. […] One thousand total cells were scored per microtissue to determine the frequency of MN and cytome. The percentage of MN and cytome at each concentration of test chemical was compared with the solvent control. The results were generated from three independent experiments. Each experiment consisted of a single microtissue per dose.
# TK6 cells [4] = settings: 24 h-exposure, dose not printed (Fig. 6b)
# TK6 cells [5] = settings: 24 h, comparable across all concentrations tested; DMSO control 0.7%
# [6] = 50 ng/ml, apical, 10 days, Carnoy's fixative, mean ± SE
# [7] = 250 ng/ml, apical, 10 days, Carnoy's fixative, mean ± SE
# [8] = 500 ng/ml, apical, 10 days, Carnoy's fixative, mean ± SE
structure (smiles),measurement,setting,value
"C=C1[C@@H](C)[C@H]2[C@H](Cc3ccccc3)NC(=O)[C@]23OC(=O)/C=C/[C@H](O)CCC[C@@H](C)C/C=C/[C@H]3[C@@H]1O [Cyt-B, cytochalasin B]",cells containing BN (binucleated),3D EpiIntestinal™ tissue [1],8.1% and ~ 8.1%
same,mononuclear cells,3D EpiIntestinal™ tissue [1],91.9%
c1ccc2c(c1)cc1ccc3cccc4ccc2c1c34 [benzo(a)pyrene],doses with significant decreases in cell population,3D EpiIntestinal™ tissue [2],≥ 6.25 µg/mL
same,"BN, binucleated cells","3D EpiIntestinal™ tissue [3]; human, 10 days, 6.25 μg/ml",1.30 ± 0.12%
same,"CC, condensed chromatin","3D EpiIntestinal™ tissue [3]; human, 10 days, 6.25 μg/ml",0.13 ± 0.03%
same,"KL, karyolysis","3D EpiIntestinal™ tissue [3]; human, 10 days, 6.25 μg/ml",0.60 ± 0.25%
same,"KR, karyorrhexis","3D EpiIntestinal™ tissue [3]; human, 10 days, 6.25 μg/ml",5.59 ± 0.41 %
same,"Mono, mononucleated cells (basal and differentiated)","3D EpiIntestinal™ tissue [3]; human, 10 days, 6.25 μg/ml",89.96 ± 0.56%
same,"PY, pyknosis","3D EpiIntestinal™ tissue [3]; human, 10 days, 6.25 μg/ml",0.23 ± 0.03%
same,"BN, binucleated cells","3D EpiIntestinal™ tissue [3]; human, 10 days, 12.5 μg/ml",1.80 ± 0.38%
same,"CC, condensed chromatin","3D EpiIntestinal™ tissue [3]; human, 10 days, 12.5 μg/ml",0.37 ± 0.22%
same,"KL, karyolysis","3D EpiIntestinal™ tissue [3]; human, 10 days, 12.5 μg/ml",0.63 ± 0.23%
same,"KR, karyorrhexis","3D EpiIntestinal™ tissue [3]; human, 10 days, 12.5 μg/ml",7.27 ± 1.07%
same,"Mono, mononucleated cells (basal and differentiated)","3D EpiIntestinal™ tissue [3]; human, 10 days, 12.5 μg/ml",85.87 ± 1.30%
same,"PY, pyknosis","3D EpiIntestinal™ tissue [3]; human, 10 days, 12.5 μg/ml",0.40 ± 0.21%
same,"BN, binucleated cells","3D EpiIntestinal™ tissue [3]; human, 10 days, 25 μg/ml",0.99 ± 0.29%
same,"CC, condensed chromatin","3D EpiIntestinal™ tissue [3]; human, 10 days, 25 μg/ml",0.20 ± 0.10%
same,"KL, karyolysis","3D EpiIntestinal™ tissue [3]; human, 10 days, 25 μg/ml",0.40 ± 0.20%
same,"KR, karyorrhexis","3D EpiIntestinal™ tissue [3]; human, 10 days, 25 μg/ml",6.24 ± 0.06 %
same,"Mono, mononucleated cells (basal and differentiated)","3D EpiIntestinal™ tissue [3]; human, 10 days, 25 μg/ml",88.11 ± 1.01%
same,"PY, pyknosis","3D EpiIntestinal™ tissue [3]; human, 10 days, 25 μg/ml",0.56 ± 0.33%
CO[C@@]12[C@H](COC(N)=O)C3=C(C(=O)C(C)=C(N)C3=O)N1C[C@@H]1N[C@@H]12 [mitomycin C],population decline,TK6 cells [4],55%
"[H]/N=C(/N)N/C(=N/[H])NCCc1ccccc1 [phenformin HCl, Phenformin HCl]",prevalence of MN in TK6 cells,TK6 cells [5],~ 0.6%
same,loss of viable cell populations,3D EpiIntestinal™ tissue [2]; 62.5 µg/ml,40%
same,loss of viable cell populations,3D EpiIntestinal™ tissue [2]; 125 µg/ml,45%
same,loss of viable cell populations,3D EpiIntestinal™ tissue [2]; 250 µg/ml,60%
same,RICyt assay outcome,3D EpiIntestinal™ tissue [3],inactive
same,prevalence of MN,"3D EpiIntestinal™ tissue [3]; 10 days' exposure, DMSO control […]",~ 1%
CC[C@]1(O)C[C@@H]2CN(CCc3c([nH]c4ccccc34)[C@@](C(=O)OC)(c3cc4c(cc3OC)N(C)[C@H]3[C@@](O)(C(=O)OC)[C@H](OC(C)=O)[C@]5(CC)C=CCN6CC[C@]43[C@@H]65)C2)C1 [vinblastine sulphate],doses with significant decreases in cell population,3D EpiIntestinal™ tissue [2],0.5 µg/mL
same,"BN, binucleated cells",3D EpiIntestinal™ tissue [3]; [6],0.77 ± 0.12%
same,"Buds, nuclear buds",3D EpiIntestinal™ tissue [3]; [6],0.63 ± 0.29%
same,"CC, condensed chromatin",3D EpiIntestinal™ tissue [3]; [6],0.07 ± 0.03%
same,"KL, karyolysis",3D EpiIntestinal™ tissue [3]; [6],1.23 ± 0.74%
same,"KR, karyorrhexis",3D EpiIntestinal™ tissue [3]; [6],4.90 ± 0.63%
same,"MN, micronuclei",3D EpiIntestinal™ tissue [3]; [6],2.71 ± 0.44%
same,"Mono, mononucleated cells (basal and differentiated)",3D EpiIntestinal™ tissue [3]; [6],89.09 ± 1.25%
same,"PY, pyknosis",3D EpiIntestinal™ tissue [3]; [6],0.6 ± 0.12%
same,"BN, binucleated cells",3D EpiIntestinal™ tissue [3]; [7],0.86 ± 0.38%
same,"Buds, nuclear buds",3D EpiIntestinal™ tissue [3]; [7],0.53 ± 0.28%
same,"CC, condensed chromatin",3D EpiIntestinal™ tissue [3]; [7],0.15 ± 0.13%
same,"KL, karyolysis",3D EpiIntestinal™ tissue [3]; [7],1.82 ± 1.01%
same,"KR, karyorrhexis",3D EpiIntestinal™ tissue [3]; [7],4.75 ± 1.30%
same,"MN, micronuclei",3D EpiIntestinal™ tissue [3]; [7],3.11 ± 0.36 %
same,"Mono, mononucleated cells (basal and differentiated)",3D EpiIntestinal™ tissue [3]; [7],87.14 ± 2.07%
same,"PY, pyknosis",3D EpiIntestinal™ tissue [3]; [7],1.66 ± 0.49%
same,"BN, binucleated cells",3D EpiIntestinal™ tissue [3]; [8],0.94 ± 0.49%
same,"Buds, nuclear buds",3D EpiIntestinal™ tissue [3]; [8],0.50 ± 0.16%
same,"CC, condensed chromatin",3D EpiIntestinal™ tissue [3]; [8],0.17 ± 0.02 %
same,"KL, karyolysis",3D EpiIntestinal™ tissue [3]; [8],1.79 ± 1.05%
same,"KR, karyorrhexis",3D EpiIntestinal™ tissue [3]; [8],6.48 ± 2.52%
same,"MN, micronuclei",3D EpiIntestinal™ tissue [3]; [8],3.46 ± 0.16 %
same,"Mono, mononucleated cells (basal and differentiated)",3D EpiIntestinal™ tissue [3]; [8],84.89 ± 3.06%
same,"PY, pyknosis",3D EpiIntestinal™ tissue [3]; [8],1.77 ± 0.77%
same,frequency of pyknotic and karyolytic cells,"3D EpiIntestinal™ tissue [3]; apical, 10 days",increased
